Test results taken from patent US10227347B2, “Purinyl-N-hydroxyl pyrimidine formamide derivative, preparation methods and uses thereof” (Guizhou Bailing Group Pharmaceutical CO., LTD., priority 2015, dated 2019).
Read-outs that look alike come from different tables or passages of the source.

How the values were obtained:
[1] = test system: acetylated histone H3 (Ac-H3) in A2780s cells; assay: Induction of histone H3 acetylation in A2780s cells (cytoblot); format: cell-based; conditions: Homo sapiens, 6 h treatment
Procedure: Specific operation: After the treatment, washing each well once with 50-100 μl of cold TBS buffer [with the composition as 20 mM Tris (trismetyl aminomethane), pH7.5] and fixing it with 100 μL of 4% pre-cooled paraformaldehyde at 4° C. for 1 h; after paraformaldehyde is washed off, adding 50 μL of pre-cooled methyl alcohol in each well and evenly spreading at 4° C. for 5 min; after methyl alcohol is washed off, washing it once with the TBS buffer containing 3% skim milk powder and adding 50 μL of antibody fluid, oscillating it slightly at 4° C. and incubating overnight. For determination of Ac—H3, the antibody fluid is prepared by diluting Ac—H3 antibody and horseradish peroxide coupled secondary antibody to a same system with the TBS buffer containing 3% skim milk powder (Ac—H3 antibody is purchased from Santa Cruz Company and diluted at a ratio of 1:100; horseradish peroxide coupled secondary antibody is purchased from Jackson Company and diluted at a ratio of 1:2000); for determination of acetylated Ac-α-tubulin, the antibody fluid is prepared by diluting Ac-α-tubulin antibody and horseradish peroxide coupled secondary antibody to a same system with the TBS buffer containing 3% skim milk powder (Ac-α-tubulin antibody is purchased from Santa Cruz Company and diluted at a ratio of 1:100; horseradish peroxide coupled secondary antibody is purchased from Jackson Company and diluted at a ratio of 1:2000).
Calculating the value of IC50 as per the formula: Y=background data+(top data−background data)/(1+10^((Log EC50−X)*rate of curve)) Where, Y refers to the activating rate (%) and X refers to the compound concentration.

[2] = target: T1, HDAC10 (Homo sapiens, UniProt Q969S8); assay: HDAC10 enzyme inhibition (Lys-Ac-AMC); format: biochemical; conditions: Table 4, graded
T1 construct: purchased BPS Bioscience 50060
T1 sequence (Q969S8 1-669): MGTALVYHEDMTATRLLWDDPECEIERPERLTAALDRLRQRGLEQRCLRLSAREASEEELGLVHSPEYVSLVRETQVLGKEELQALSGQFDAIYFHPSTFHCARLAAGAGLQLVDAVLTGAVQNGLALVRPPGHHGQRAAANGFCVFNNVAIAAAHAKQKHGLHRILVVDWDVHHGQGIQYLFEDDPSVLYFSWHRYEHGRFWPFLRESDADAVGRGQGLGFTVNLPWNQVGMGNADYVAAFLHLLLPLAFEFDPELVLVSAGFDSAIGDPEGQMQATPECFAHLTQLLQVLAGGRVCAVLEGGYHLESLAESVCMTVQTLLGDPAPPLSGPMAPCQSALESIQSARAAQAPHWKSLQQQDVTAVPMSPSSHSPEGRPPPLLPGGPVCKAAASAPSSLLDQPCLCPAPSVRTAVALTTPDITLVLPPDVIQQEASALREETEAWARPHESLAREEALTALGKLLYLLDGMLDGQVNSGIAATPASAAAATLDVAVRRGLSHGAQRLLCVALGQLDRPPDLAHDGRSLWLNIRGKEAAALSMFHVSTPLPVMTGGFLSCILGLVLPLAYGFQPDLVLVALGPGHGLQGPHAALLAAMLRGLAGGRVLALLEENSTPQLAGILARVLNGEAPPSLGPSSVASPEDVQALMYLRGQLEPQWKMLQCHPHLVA
Procedure: (§1) Determining the inhibition capability of HDAC through the substrate method of fluorophore coupled acetylized peptide fragment (Lys-Ac-AMC). HDAC2-11 proteins of subtypes are purchased from BPS Bioscience Company with the Art. […] The reaction buffer system is a modified Tris buffer (pH7.0). The small molecule compounds are prepared and dissolved with 100% DMSO. […] Adding the compound into the reaction wells of the 384 well plate at the designed concentration, then adding 15 μL HDAC enzyme solution into the reaction wells (adding 15 μL blank buffer into the control well 0) for incubation under ambient temperature for 15 min; then adding 10 μL substrate solution to start reaction.
(§2) Analyzing the result data with the software GraphPad Prism and calculating the value of IC50 as per the formula: Y=background data+(top data−background data)/(1+10^((Log IC50−X)*rate of curve)). Where, Y refers to the inhibition ratio (%) and X refers to the compound concentration.

[3] = test system: A2780s cells (ovarian cancer); assay: Cell proliferation inhibition, A2780s (MTT); format: cell-based; conditions: Homo sapiens
How it was run: (§3)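 Cells seeded at 2000-3000/well; adherent lines dosed after attachment, then 96 h incubation with compound. Viability read by MTT for solid-tumour lines (HCT116, A2780s) and CCK-8 for MV4-11; IC50 from four-parameter logistic fit of inhibition ratio versus concentration.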

[4] = test system: MV4-11 subcutaneous tumor; conditions: 10 mg/kg i.v., once per two days, 22 days
Description: During drug administration, measuring the weight and gross tumor volume of the mice per 2 days and keeping a record. The calculation formula is as V=π/6×A^2×B, where, where, V=gross tumor volume (mm^3), A=tumor width (mm) and B=tumor length (mm). Observing and keeping a record for the survival condition of the tested animals. After drug discontinuance, killing the mice through cervical dislocation and peeling off their tumors as per the operation specification of animal experiment. Evaluating the inhibition capability of the compounds to tumor activities by calculating the tumor inhibitory rate with the formula as: tumor inhibitory rate=(1−tumor weight of treatment group/tumor weight of control group)×100%. Analyzing and comparing the difference between each treatment group and control group with the method of t-test. The grading of significance level of difference is: ***, P<0.001; **, P<0.01; *, P<0.05; no statistical significance (ns), P>0.05.

[5] = target: T2, HDAC5 (Homo sapiens, UniProt Q9UQL6); assay: HDAC5 enzyme inhibition (Lys-Ac-AMC); format: biochemical; conditions: Table 4, graded
T2 construct: purchased BPS Bioscience 50005
T2 sequence (Q9UQL6 656-1122 limits assumed): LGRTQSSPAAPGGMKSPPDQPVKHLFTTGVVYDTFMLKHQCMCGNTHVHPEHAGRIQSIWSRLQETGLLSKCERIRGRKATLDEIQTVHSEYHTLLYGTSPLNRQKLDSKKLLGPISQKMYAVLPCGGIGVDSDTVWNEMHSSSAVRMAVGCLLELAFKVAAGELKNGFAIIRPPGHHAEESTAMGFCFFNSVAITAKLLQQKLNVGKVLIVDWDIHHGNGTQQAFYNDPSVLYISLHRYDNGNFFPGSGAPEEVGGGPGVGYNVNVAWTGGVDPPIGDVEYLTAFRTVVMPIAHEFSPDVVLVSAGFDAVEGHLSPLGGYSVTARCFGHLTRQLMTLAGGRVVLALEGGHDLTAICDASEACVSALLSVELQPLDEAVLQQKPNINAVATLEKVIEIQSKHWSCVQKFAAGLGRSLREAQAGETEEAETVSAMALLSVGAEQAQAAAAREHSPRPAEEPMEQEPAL
Procedure: as §1, §2

[6] = test system: MV4-11 cells (acute myeloid leukemia); assay: Cell proliferation inhibition, MV4-11 (cck-8); format: cell-based; conditions: Homo sapiens
How it was run: as §3

[7] = test system: HBL-1 cells (B-cell lymphoma); assay: Proliferation inhibition, HBL-1 (cck-8); format: cell-based; conditions: Homo sapiens, HBL1; 96 h incubation
Description: Calculating the value of IC50 as per the formula: Y=background data+(top data−background data)/(1+10^((Log IC50−X)*rate of curve)). Where, Y refers to the inhibition ratio (%) and X refers to the compound concentration.

[8] = 96 h incubation, read-out: Proliferation IC50, Ovarian cancer A2780s
[9] = 96 h incubation, read-out: Proliferation IC50, Acute myeloid leukemia MV4-11

SMILES | EC50 [1] [nM] | IC50 [2] [nM] | IC50 [3, 8] [nM] | Final survival condition (survived individuals/total individuals) [4] | IC50 [5] [nM] | IC50 [6, 9] [nM] | IC50 [7] [nM] | Tumor inhibitory rate (%) [4] [%] | IC50 ([3]; read-out: IC50 to proliferation of A2780s cells) [nM] | IC50 ([6]; read-out: IC50 to proliferation of MV4-11 cells) [nM]
COc1ccc(-c2nc(N3CCOCC3)c3nc(CN(C)c4ncc(C(=O)NO)cn4)n(C)c3n2)cn1 [CLJ-1, 2-(((2-(6-methoxypyridine-3-yl)-9-methyl-6-morpholine-9H-purine-8-yl))methyl(methyl)amino)-N-hydroxyl pyrimidine-5-formamide] | 100 to 200 | 1 to 100 | 0.1 to 10 | 5/6 | 1000 to 10000 | 0.1 to 10 | 1 to 10 | – | – | –
CN(Cc1nc2c(N3CCOCC3)nc(-c3cnc(N)nc3)nc2n1C)c1ncc(C(=O)NO)cn1 [CLJ-11, 2-(((2-(2-aminopyrimidine-5-yl)-9-methyl-6-morpholine-9H-purine-8-yl))methyl(methyl)amino)-N-hydroxyl pyrimidine-5-formamide] | 100 to 200 | 1 to 100 | 10 to 100 | 4/6 | 100 to 1000 | 0.1 to 10 | 10 to 100 | 45.1 | – | –
COc1ccc(-c2nc(N3CCOCC3)c3nc(CN(C)c4ncc(C(=O)NO)cn4)n(C)c3n2)cc1 [CLJ-29, 2-(((2-(4-methoxyphenyl)-9-methyl-6-morpholine-9H-purine-8-yl))methyl(methyl)amino)-N-hydroxyl pyrimidine-5-formamide] | < 100 | 1 to 100 | 0.1 to 10 | 4/6 | 1000 to 10000 | 0.1 to 10 | 1 to 10 | – | 0.1 to 10 | 0.1 to 10
CN(Cc1nc2c(N3CCOCC3)nc(-c3ccc(N)cc3)nc2n1C)c1ncc(C(=O)NO)cn1 [CLJ-44] | 100 to 200 | 1 to 100 | 0.1 to 10 | 6/6 | 100 to 1000 | 0.1 to 10 | 1 to 10 | – | – | –
Cc1[nH]c2ccccc2c1CCNCc1ccc(/C=C/C(=O)NO)cc1 [LBH589, panobinostat, reference compound] | 100 to 200 | – | 0.1 to 10 | – | – | 0.1 to 10 | 1 to 10 | – | – | –
